From ChEMBL document CHEMBL1157539, “Thousands of chemical starting points for antimalarial lead identification” (Nature, 2010) come the findings set out here.

The assay relates to Plasmodium falciparum. The assay is described as follows: GSK_TCMDC: Inhibition of Plasmodium falciparum 3D7 in whole erythrocytes, using parasite LDH activity as an index of growth. Format: functional, organism-based. Particulars: Plasmodium falciparum, 3D7.
In turn, `COc1ccc2nc(-c3ccccc3)cc(N/N=C/c3ccc([N+](=O)[O-])cc3)c2c1` gave an XC50 of 149 nM.

Compound `Oc1ccccc1CNCC(O)c1cccc(C(F)(F)F)c1` (configuration not stated) came in with an XC50 of 526 nM.

In turn, `O=C(Nc1cccc(-c2cccc(-c3nc4cc(C(F)(F)F)ccc4[nH]3)c2)c1)c1cccnc1Cl` returned an XC50 of 657 nM.

`COc1ccc(-c2nc3c4ccccc4c4ccc(I)cc4c3[nH]2)cc1` showed an XC50 of 1100 nM.

In the case of `Cc1ccc2[nH]c3ccccc3c(=O)c2c1`, the XC50 amounted to 863 nM.

Consider `CCCCC1(NC(=O)[C@@H](Nc2ccc(C#N)c3ccccc23)C2CCCCC2)CCCCC1`, for which the XC50 amounted to 1120 nM.

Consider `Clc1ccc(-c2nc3cc(-c4ccc5nc(-c6ccc(Cl)cc6)[nH]c5c4)ccc3[nH]2)cc1`, for which the XC50 came to 241 nM.

Consider `CC1CCCC(NC(=O)CCOc2ccccc2)C1` (configuration not stated), for which the XC50 was determined as 882 nM.

In the case of `O=C(NCCCCN1CCCC2c3cccc(O)c3CCC21)c1ccc(-c2ccccc2)cc1` (configuration not stated), the XC50 was determined as 1170 nM.

As to `CCOCCCn1c(=N)c(C(=O)NCc2ccc(OC)cc2)cc2c(=O)n3cccc(C)c3nc21`, the XC50 was 1060 nM.

The compound `CC(C)(C)NC(=O)c1ccc(Oc2ccc(OC(F)(F)F)cc2)c(NC(=O)C(C)(C)C)c1` registered an XC50 of 977 nM.

Compound `O=c1cc(NCCCNCc2cc(C(F)(F)F)ccc2Cl)[nH]c2ccccc12` registered an XC50 of 1020 nM.

`Fc1ccc2[nH]c(-c3ccc(-c4cccc(CN5CCN(c6ccncc6)CC5)c4)cc3)nc2c1` yielded an XC50 of 85.7 nM.

With `CN1CCN(Cc2ccc(-c3ccc4c(Nc5cc(O)c(Cl)cc5F)ccnc4c3)o2)CC1`, the XC50 was found to be 110 nM.

As to `CN(CCCNCc1cccc2ccccc12)CCCNCc1cccc2ccccc12`, the XC50 came to 722 nM.

As to `O=C(Nc1cccc(CN2CCCN(CC3CC3)CC2)c1)c1ccc(-c2ccccc2)cc1`, the XC50 was found to be 930 nM.

Turning to `CC[C@H](NC(=O)c1c(N)c(-c2sccc2Cl)nc2ccccc12)c1ccccc1`, the XC50 came to 912 nM.

Compound `Cc1cc(O)c(-c2ccc(OCc3ccc(Cl)cc3)cc2)c(C)n1` displayed an XC50 of 732 nM.

`Cc1noc(-c2ccc(NC[C@@H](C)NC[C@H](O)c3cccc(Cl)c3)cc2)n1`: the XC50 came to 756 nM.

For the compound `CCCCc1cc(NCC)nc(Nc2cccc(OC)c2)n1`, the XC50 amounted to 922 nM.

For the compound `CS(=O)(=O)c1ccccc1CNC(=O)c1ccc(-c2ccc(-c3nc4cc(C(F)(F)F)ccc4[nH]3)s2)cc1`, the XC50 came out at 236 nM.

The compound `N#Cc1ccc(C=NNc2nc3ccccc3[nH]2)cc1` yielded an XC50 of 1000 nM.

In turn, `CN1CCN(CCc2ccc3nc(-c4csc(Cc5cc(Cl)ccc5OCc5ccccc5)n4)[nH]c3c2)CC1` registered an XC50 of 750 nM.

`O=[N+]([O-])c1ccc2c(c1)c1ccccc1n2Cc1ccccc1O`: the XC50 amounted to 1110 nM.

In the case of `FC(F)(F)c1ccc(-c2ccc(CNC3CCN(CCN4CCOCC4)CC3)cc2)cc1`, the XC50 came to 756 nM.

Regarding `CC(C)Oc1ccc(N2CCN(CCCCNC(=O)c3ccc(NC(=O)c4ccc(Cl)cc4)cc3)CC2)c(OC(C)C)c1`, the XC50 was 512 nM.

For `Cc1cc(O)c(-c2cccc(Oc3ccc(Cl)cc3)c2)c(C)n1`, the XC50 was found to be 736 nM.

On to `COc1cc(NC(=O)Nc2ccnc3ccccc23)cc(OC)c1`, for which the XC50 was determined as 469 nM.

For `CN(C)c1ccc(CN2CCC(CNC(=O)c3cc(-c4ccccc4Cl)cs3)C2)cc1` (configuration not stated), the XC50 worked out at 1440 nM.

In turn, `CCCc1cc(NC2CCN(C)CC2)nc(Nc2ccc(F)cc2)n1` returned an XC50 of 801 nM.

Regarding `Cc1c(CNCCCNc2cc(=O)c3ccccc3[nH]2)sc(-c2ccco2)c1Br`, the XC50 was 1020 nM.

With `O=C(NCCCCN1CCC(c2ccc3c(c2O)CCCC3)CC1)c1ccc(NC(=O)c2ccc(Cl)cc2)cc1`, the XC50 turned out to be 243 nM.

`COc1cccc2c(NN=Cc3cccc(Cl)c3)ccnc12`: the XC50 was 838 nM.

As for `CC(C)(C)c1cc(NC2CC2)nc(-c2ccccn2)n1`, the XC50 amounted to 719 nM.

`COCCNCc1ccc(-c2ccc(CNc3ccc4ncccc4c3)cc2)cc1`: the XC50 was 1040 nM.

Consider `COc1ccc(NC(=O)[C@H](CC(C)C)Nc2cc(C)nc(NCc3ccccc3C)n2)cc1`, for which the XC50 turned out to be 888 nM.

In turn, `COc1cc(C(=O)NCCCN2CCN(c3cc(Cl)ccc3OC)CC2)ccc1-c1nc2cc(Cl)c(Cl)cc2[nH]1` showed an XC50 of 731 nM.

`Cc1sc(N2CCCCC2)nc1C(=O)Nc1ccc(F)cc1C(F)(F)F`: the XC50 turned out to be 1150 nM.

`COc1cccc2c(Oc3ccccc3C)ccnc12` displayed an XC50 of 1230 nM.

`CN(C)CCn1cc(C(=O)c2cc(Cl)ccc2O)cc1-c1nc2ccccc2c(=O)[nH]1` registered an XC50 of 634 nM.

`CCCCN(CCCC)CCCN(CCCN(CCCC)CCCC)c1cc(C)nc(Nc2ccc(Cl)cc2)n1` registered an XC50 of 370 nM.

For the compound `O=C(CCc1ccco1)NC1CCN(CC2(c3ccc(Cl)cc3)CCC2)CC1`, the XC50 turned out to be 1450 nM.

Consider `CCN(CC)c1nc(Nc2cc(C)ccc2C)nc(Nc2ccccc2O)n1`, for which the XC50 stood at 641 nM.

On to `c1ccc(Oc2ccc(Nc3ccnc(Nc4ccc(CN5CCOCC5)cc4)n3)cc2)cc1`, for which the XC50 is 941 nM.

Turning to `COc1ccccc1C1CCN(C2CCC(NC(=O)c3cc4ccccc4[nH]3)CC2)CC1` (configuration not stated), the XC50 was 1210 nM.

With `Cc1cccc(-c2nc(Nc3ccncc3)c3ccc([N+](=O)[O-])cc3n2)n1`, the XC50 was 831 nM.

`O=C(C=Cc1ccc(Br)cc1)NC1CCC(CN2CCC(c3c[nH]c4ccccc34)CC2)CC1` (configuration not stated): the XC50 was found to be 682 nM.

In turn, `Cn1cnc(CCNC(=O)c2ccc(-c3cccc(-c4nc5cc(C(F)(F)F)ccc5[nH]4)c3)cc2)c1` showed an XC50 of 726 nM.

`Cc1cc(N2CCCC2)nc(Nc2ccc(NC(=O)COc3ccccc3)cc2)n1` displayed an XC50 of 647 nM.

With `Cc1nc(C)c(-c2ccc(Oc3cccc(OC(F)(F)F)c3)cc2)c(O)c1Cl`, the XC50 amounted to 684 nM.

Turning to `COc1ccc2nccc([C@@H](O)CN3CCC(NCc4ccc5scnc5c4)CC3)c2c1`, the XC50 turned out to be 399 nM.

In turn, `COC(=O)c1cccc(CN(CCC(O)(C(F)(F)F)C(F)(F)F)C(=O)CC2CCCC2)c1` returned an XC50 of 909 nM.

On to `Cc1cc2nc(-c3ccc(C(=O)NCc4ccc(C(C)(C)C)cc4)cc3)[nH]c2cc1C`, for which the XC50 came to 772 nM.

Compound `COc1c(C2CCN(CCCCNC(=O)c3ccc(NC(=O)c4ccc(C#N)cc4)cc3)CC2)ccc2c1CCCC2` registered an XC50 of 292 nM.

`O=C(/C=C/c1ccc(F)cc1)NC1CCC(CCN2CCc3ccccc3CC2)CC1` (configuration not stated): the XC50 was 1400 nM.

For `O=C(NC1CC1)c1ccc(N2CCC(Cc3ccccc3)CC2)c([N+](=O)[O-])c1`, the XC50 is 614 nM.

Regarding `C[C@@H]1CN(C(c2cccc(O)c2)c2cccc(C(=O)N(C)c3cccc(F)c3)c2)[C@@H](C)CN1C(c1cccc(O)c1)c1cccc(C(=O)N(C)c2cccc(F)c2)c1` (some centres not stated), the XC50 was found to be 918 nM.

`O=C(Cn1c(CCc2cccc(F)c2F)cc(=O)c2cccnc21)N(CCCn1ccnc1)Cc1ccc(-c2ccc(C(F)(F)F)cc2)cc1`: the XC50 was 797 nM.

Consider `O=C(CSc1nnc(-c2ccccc2Br)[nH]1)c1c[nH]c2ccccc12`, for which the XC50 came out at 982 nM.

`CCNc1cc(C(=O)N[C@@H](Cc2ccccc2)[C@H](O)CNCCc2cc(OC)cc(OC)c2)cc(N2CCCCS2(=O)=O)c1` showed an XC50 of 1140 nM.

As to `CC(C)c1ccc(CN2CCC(NC(=O)c3ccc(-c4ccccc4F)s3)CC2)cc1`, the XC50 turned out to be 1550 nM.

With `C/C=C1\CN2CC[C@H]1C[C@@H]2[C@@H](O)c1ccnc2ccc(O)cc12`, the XC50 is 245 nM.

`Nc1ncnc2cc(-c3cccc(S(N)(=O)=O)c3)sc12`: the XC50 was found to be 151 nM.

As to `CC1CCN(CC[C@H]2CCCN2S(=O)(=O)c2cccc(NC(=O)c3cc4ccccc4s3)c2)CC1`, the XC50 was determined as 830 nM.

On to `Cc1cc(C2NC(=O)c3ccccc3N2)c(C)n1-c1ccc2c(c1)OCO2` (configuration not stated), for which the XC50 is 731 nM.

Turning to `COc1ccc(OC)c2c1CC1NCC2c2c(OC)ccc(OC)c21` (configuration not stated), the XC50 was found to be 971 nM.

`CN1CCN(c2ccnc3ccc(NC(=O)Nc4ccc(Cl)cc4)cc23)CC1` showed an XC50 of 112 nM.

On to `COc1cccc(CN(C(=O)Nc2ccccc2F)[C@H]2C[C@H]3C(=O)Nc4cc(F)ccc4C(=O)N3C2)c1`, for which the XC50 was 841 nM.

As to `COC(=O)c1cccc(N2CCN(CCCNC(=O)/C(=C/C=C/c3cc4cc(Cl)c(Cl)cc4[nH]3)OC)CC2)c1`, the XC50 is 667 nM.

In turn, `COc1ccc(C(=O)NCC(C)(C)c2nc(-c3ccc(Cl)c(O)c3)c(-c3ccncc3)[nH]2)cc1OCCN(C(C)C)C(C)C` showed an XC50 of 643 nM.

With `COc1ccc2nccc(N(C)CC3(O)CCC(NCc4ccc5c(n4)NC(=O)CS5)CC3)c2n1` (configuration not stated), the XC50 was found to be 700 nM.

Take `OC1CCC(Nc2ccc3ncc(-c4ccc(Cl)cc4)n3n2)CC1` (configuration not stated): the XC50 was 824 nM.

`CC(C)[C@@H](C(=O)NCc1cccc(C(F)(F)F)c1)N1C(=O)CCC1C(=O)Nc1ccc([N+](=O)[O-])cc1` (some centres not stated) came in with an XC50 of 934 nM.

`C=CCN1C(=O)C(C(C)=O)=C(O)C1c1ccccc1` (configuration not stated) had an XC50 of 53.8 nM.

On to `Cc1cc(SC(C)(C)C)cc2c(Cl)c(C(N)=O)cnc12`, for which the XC50 was 1090 nM.

As to `CN1CCN(c2ccnc3cc4c(cc23)N(Cc2ccccc2)CC4)CC1`, the XC50 worked out at 1140 nM.

The compound `CCCN1CCN(c2cc(NCC)c3c4c(onc24)-c2ccccc2C3=O)CC1` registered an XC50 of 1060 nM.

`O=C(Nc1ccc2c(c1)CCN(C1CCC1)CC2)c1ccc(-c2cn3ccccc3n2)cc1` came in with an XC50 of 879 nM.

In turn, `COc1ccc(Nc2nccc(N3CCC(NC(=O)c4cc5ccccc5s4)C3)n2)cc1` (configuration not stated) showed an XC50 of 759 nM.

As to `N#Cc1cccc(NC(=O)c2cccc(S(=O)(=O)NC3CCN(CC4CCCCC4)C3)c2)c1` (configuration not stated), the XC50 was 578 nM.

As to `Cc1ccc(Cn2cnc3cc(C(=O)Nc4ccc(-c5cccc(CN(C)C)c5)cc4)ccc3c2=O)o1`, the XC50 turned out to be 625 nM.

`CC(=O)c1cccc2c(NC(=O)Nc3ccc4nccc(N5CCN(C)CC5)c4c3)cccc12` had an XC50 of 400 nM.

Consider `O=C(NCc1ccc(F)cc1)Nc1ccc(-c2ccc(-c3nc4ccccc4[nH]3)cc2)cc1`, for which the XC50 came to 90.7 nM.

Consider `CC(C)NCC(O)COc1ccc(Cc2ccc(OCC(O)CNC(C)C)cc2)cc1` (configuration not stated), for which the XC50 was 654 nM.

`O=C(Nc1cccc(-c2ccc(CN3CCCC3)cc2)c1)c1ccc(Cl)cc1` had an XC50 of 427 nM.

The compound `Cc1cccc2sc(N(CCCn3ccnc3)C(=O)C=Cc3cccs3)nc12` yielded an XC50 of 1280 nM.

Turning to `Cc1cc(F)ccc1[C@H]1C[C@H](N2CCOCC2)CCN1C(=O)N(C)[C@@H](C)c1cc(C(F)(F)F)cc(C(F)(F)F)c1`, the XC50 worked out at 764 nM.
